This test addresses p45 v-abl tyrosine kinase. Nature of the test: Exogenous Substrate Kinase Assay: p45 v-abl kinase inhibition, (Val5)-Angiotensin II phosphorylation. In kind it is biochemical, Abelson murine leukemia virus. The following applies: (Val^5)-Angiotensin II 2 mM, ATP 50 μM, pH 8.0, 30° C., triplicate determinations. As to the method:
The enzyme used in our test was the p45 v-abl tyrosine kinase which represents the catalytic domain of the Abelson tyrosine kinase (isolated from the Abelson murine leukemia virus). The p45 v-abl kinase was produced and isolated as described by Wang et al. in J. Biol. Chem. 260, 64 (1985) and by Ferguson et al. in J. Biol. Chem. 260, 3652 (1985) and in Biochem. J. 257, 321 (1989).
(Val^5)-Angiotensin II phosphorylation was performed by incubation with 40 ng of purified abl-kinase and (γ-^32 P)-ATP, in 50 μl of buffer containing Tris-HCl 25 mM, pH 8.0, MgCl2 10 mM and dithiothreitol 0.1 mM (kinase buffer). The reaction mixture was incubated for the indicated time at 30° C. and the reaction stopped by adding 50 μl of 5% trichloroacetic acid.
After a brief incubation on ice, tubes were centrifuged. The supernatants were spotted on phosphocellulose paper squares (Whatman P-81) and washed extensively in acetic acid. The radioactivity bound to dried phosphocellulose squares was measured in a liquid scintillation counter. IC50 values were calculated from triplicate determinations of each experimental point. Each inhibitor was tested at concentrations ranging from […] in the presence of fixed concentrations of peptide (2 mM) and ATP (50 μM).

The structures appear in SMILES notation.

In patent US5397787A, “Vinylene-azaindole derivatives” (Farmitalia Carlo Erba S.R.L., priority 1992, dated 1995) one finds IC50 data, which are given here for two molecules.

Broadly, the IC50 is the concentration at which inhibition is half-maximal.

Take `O=C1Nc2ccccc2/C1=C/c1c[nH]c2ncccc12` [3-[(7-azaindol-3-yl)methylen]-2-oxindole, (Z)-3-[(7-azaindol-3-yl)methylen]-2-oxindole]: the IC50 came out at 50 nM.
For `N#CC(=Cc1c[nH]c2ncccc12)C(N)=O` [2-cyano-3-(7-azaindol-3-yl)acrylamide] the value was 4700 nM.
